Usually IC50 stands for the concentration that inhibits the measured activity by half.

A value given as a limit tells only on which side of the number the result lay.

Series [1] is described as follows: Cytotoxicity against mouse NIH/3T3 cells assessed as cell viability incubated for 72 hrs by MTT assay. In kind it is toxicity, cell-based, NIH3T3. (Tetrazolium dyes change colour on reduction, which living cells bring about.)
Series [2] in a line: Cytotoxicity against human HUVEC cells assessed as cell viability incubated for 72 hrs by MTT assay. In kind it is toxicity, cell-based.
The test system of the next series is MDA-MB-231. In words: cells. Particulars: Homo sapiens, MDA-MB-231, 72 h.
A further series concerns BXPC-3. In words: cells. The conditions noted are these: Homo sapiens, BXPC-3, 72 h.

Description for BXPC-3: Antiproliferative activity against human BXPC-3 cells assessed as cell viability incubated for 72 hrs by MTT assay
Description for MDA-MB-231: Antiproliferative activity against human MDA-MB-231 cells assessed as cell viability incubated for 72 hrs by MTT assay

On to `COC(=O)c1ccc2c(c1)NC(=O)/C2=C(\Nc1ccc(N(C)C(=O)[C@@H](C)N2CCN(C)CC2)cc1)c1ccccc1`, for which the IC50 at 72 h in series [1] was 3750 nM; in series [2] it was 1360 nM.
`CC(C(=O)N(C)c1ccc(N/C(=C2\C(=O)Nc3cc(Cl)ccc32)c2ccccc2)cc1)N1CCSCC1` (racemic): the IC50 in the series on MDA-MB-231 and in the series on BXPC-3 was greater than 10000 nM throughout. Moreover, the IC50 at 72 h in series [1] and in series [2] was greater than 10000 nM throughout.
Take `COC(=O)c1ccc2c(c1)NC(=O)/C2=C(\Nc1ccc(N(C)C(=O)C(C)N2CCSCC2)cc1)c1ccccc1` (racemic): the IC50 with MDA-MB-231 and in the series with BXPC-3 was greater than 10000 nM each time. The IC50 at 72 h in series [1] and in series [2] was greater than 10000 nM throughout.
As to `CCN1CCN(CC(=O)N(C)c2ccc(N/C(=C3\C(=O)Nc4cc(Br)ccc43)c3ccccc3)cc2)CC1`, the IC50 came out at 3910 nM with MDA-MB-231 and 3570 nM in the series with BXPC-3. Moreover, the figures for the IC50 at 72 h in series [1] and in series [2] were 3200 nM and 1570 nM, respectively.
Regarding `COC(=O)c1ccc2c(c1)NC(=O)/C2=C(\Nc1ccc(N(C)C(=O)CN2CCOCC2)cc1)c1ccccc1`, the half-maximal inhibitory concentration (IC50) in the series with MDA-MB-231 and in the series with BXPC-3 was greater than 10000 nM each time. The 50% inhibitory concentration (IC50) at 72 h in series [1] and in series [2] was greater than 10000 nM throughout.
Turning to `COC(=O)c1ccc2c(c1)NC(=O)/C2=C(\Nc1ccc(N(C)C(=O)[C@H](C)N2CCN(C)CC2)cc1)c1ccccc1`, the half-maximal inhibitory concentration (IC50) at 72 h in series [1] worked out at 1170 nM; in series [2] it was 1650 nM.
For the compound `COC(=O)c1ccc2c(c1)NC(=O)/C2=C(\Nc1ccc(N(C)C(=O)C(C)N2CCN(CCO)CC2)cc1)c1ccccc1` (racemic), the IC50 turned out to be 4960 nM with MDA-MB-231 and 2470 nM with BXPC-3. The IC50 at 72 h in series [1] stood at 1370 nM; in series [2], 1090 nM.
The corresponding values for `COC(=O)c1ccc2c(c1)NC(=O)/C2=C(\Nc1ccc(N(C)C(=O)C(C)N2CCC(N(C)C)CC2)cc1)c1ccccc1` (racemic) are 5540 nM, 1690 nM, 1990 nM and 1080 nM.
As for `CCN1CCN(CC(=O)N(C)c2ccc(N/C(=C3\C(=O)Nc4cc(Cl)ccc43)c3ccccc3)cc2)CC1`, the IC50 was 3190 nM in the series with MDA-MB-231 and 1780 nM in the series with BXPC-3. The IC50 at 72 h was 1950 nM in series [1] and 1850 nM in series [2].
In the case of `CC(C(=O)N(C)c1ccc(N/C(=C2\C(=O)Nc3cc(Cl)ccc32)c2ccccc2)cc1)N1CCC(N(C)C)CC1` (racemic), the results for the IC50 in the series with MDA-MB-231 and in the series with BXPC-3 were 1980 nM and 2040 nM, respectively. The IC50 at 72 h was determined as 980 nM in series [1] and 830 nM in series [2].
As for `CC(C(=O)N(C)c1ccc(N/C(=C2\C(=O)Nc3cc(Cl)ccc32)c2ccccc2)cc1)N1CCOCC1` (racemic), the IC50 in the series with MDA-MB-231 and in the series on BXPC-3 was greater than 10000 nM throughout. Besides, the IC50 at 72 h in series [1] and in series [2] was greater than 10000 nM in each case.
On to `COC(=O)c1ccc2c(c1)NC(=O)/C2=C(\Nc1ccc(N(C)C(=O)CN(C)CCN(C)C)cc1)c1ccccc1`, for which the IC50 with MDA-MB-231 was greater than 10000 nM; in the series on BXPC-3, 6010 nM. The IC50 at 72 h came out at 3570 nM in series [1] and 2970 nM in series [2].
With `COC(=O)c1ccc2c(c1)NC(=O)/C2=C(\Nc1ccc(N(C)C(=O)C(C)N2CCN(C)CC2)cc1)c1ccccc1` (racemic), the figures for the IC50 in the series with MDA-MB-231 and in the series on BXPC-3 were 5340 nM and 3740 nM, respectively. Besides, the results for the half-maximal inhibitory concentration (IC50) at 72 h in series [1] and in series [2] were 2250 nM and 1430 nM, respectively.
On to `CN(C)CCN(C)CC(=O)N(C)c1ccc(N/C(=C2\C(=O)Nc3cc(Br)ccc32)c2ccccc2)cc1`, for which the IC50 was found to be 4960 nM in the series with MDA-MB-231 and 4220 nM in the series on BXPC-3. Further, the IC50 at 72 h worked out at 5890 nM in series [1] and 4710 nM in series [2].
Take `COC(=O)c1ccc2c(c1)NC(=O)/C2=C(\Nc1ccc(N(C)C(=O)C(C)N2CCNCC2)cc1)c1ccccc1` (racemic): the half-maximal inhibitory concentration (IC50) in the series with MDA-MB-231 and in the series with BXPC-3 was greater than 10000 nM throughout. For the same compound, the IC50 at 72 h in series [1] and in series [2] was greater than 10000 nM each time.
On to `COC(=O)c1ccc2c(c1)NC(=O)/C2=C(\Nc1ccc(N(C)C(=O)C(C)N2CCOCC2)cc1)c1ccccc1` (racemic), for which the IC50 with MDA-MB-231 and in the series with BXPC-3 was greater than 10000 nM each time. The IC50 at 72 h in series [1] and in series [2] was greater than 10000 nM each time.
As to `CC(C(=O)N(C)c1ccc(N/C(=C2\C(=O)Nc3cc(Br)ccc32)c2ccccc2)cc1)N1CCCN(C)CC1` (racemic), the concentration for half-maximal inhibition (IC50) in the series with MDA-MB-231 came out at 1860 nM; with BXPC-3, 1950 nM. The IC50 at 72 h in series [1] amounted to 3900 nM; in series [2], 2150 nM.
For `COC(=O)c1ccc2c(c1)NC(=O)/C2=C(\Nc1ccc(N(C)C(=O)C(C)N2CCCN(C)CC2)cc1)c1ccccc1` (racemic), the figures for the concentration for half-maximal inhibition (IC50) with MDA-MB-231 and in the series on BXPC-3 were 5780 nM and 1660 nM, respectively. In addition, the concentration for half-maximal inhibition (IC50) at 72 h in series [1] is 2930 nM; in series [2], 1810 nM.
Turning to `CC(C(=O)N(C)c1ccc(N/C(=C2\C(=O)Nc3cc(Cl)ccc32)c2ccccc2)cc1)N1CCN(C)CC1` (racemic), the concentration for half-maximal inhibition (IC50) in the series on MDA-MB-231 turned out to be 1240 nM; in the series with BXPC-3, 1890 nM. The IC50 at 72 h in series [1] is 1430 nM; in series [2], 840 nM.
As for `CN(C(=O)CN1CCN(CCO)CC1)c1ccc(N/C(=C2\C(=O)Nc3cc(Br)ccc32)c2ccccc2)cc1`, the IC50 was found to be 3210 nM with MDA-MB-231 and 3570 nM in the series on BXPC-3. For the same compound, the 50% inhibitory concentration (IC50) at 72 h in series [1] was 2950 nM; in series [2] it was 2490 nM.
For the compound `CC(C(=O)N(C)c1ccc(N/C(=C2\C(=O)Nc3cc(Br)ccc32)c2ccccc2)cc1)N1CCN(CCO)CC1` (racemic), the results for the 50% inhibitory concentration (IC50) in the series on MDA-MB-231 and in the series on BXPC-3 were 2060 nM and 2310 nM, respectively. Moreover, the half-inhibitory concentration (IC50) at 72 h in series [1] was found to be 2110 nM; in series [2], 1980 nM.
The corresponding values for `CN(C(=O)CN1CCN(CCO)CC1)c1ccc(N/C(=C2\C(=O)Nc3cc(Cl)ccc32)c2ccccc2)cc1` are 1350 nM, 1540 nM, 2200 nM and 1650 nM.
For the compound `COC(=O)c1ccc2c(c1)NC(=O)/C2=C(\Nc1ccc(N(C)C(=O)CN2CCC(N(C)C)CC2)cc1)c1ccccc1`, the IC50 in the series with MDA-MB-231 is 6340 nM; in the series on BXPC-3 it was 2560 nM. Besides, the figures for the IC50 at 72 h in series [1] and in series [2] were 3510 nM and 2970 nM, respectively.
The like results for `CC(C(=O)N(C)c1ccc(N/C(=C2\C(=O)Nc3cc(Br)ccc32)c2ccccc2)cc1)N(C)CCN(C)C` (racemic) were, in that order, 4540 nM, 3740 nM, 770 nM and 1770 nM.
Take `CC(C(=O)N(C)c1ccc(N/C(=C2\C(=O)Nc3cc(Br)ccc32)c2ccccc2)cc1)N1CCN(C)CC1` (racemic): the half-maximal inhibitory concentration (IC50) in the series on MDA-MB-231 was 1440 nM; in the series on BXPC-3, 1890 nM. Further, the IC50 at 72 h in series [1] turned out to be 2140 nM; in series [2] it was 950 nM.
For the compound `CN1CCN(CC(=O)N(C)c2ccc(N/C(=C3\C(=O)Nc4cc(Cl)ccc43)c3ccccc3)cc2)CC1`, the IC50 is 4540 nM in the series on MDA-MB-231 and 2980 nM in the series with BXPC-3. Further, the half-maximal inhibitory concentration (IC50) at 72 h in series [1] was determined as 3110 nM; in series [2], 1800 nM.
The corresponding values for `CC(C(=O)N(C)c1ccc(N/C(=C2\C(=O)Nc3cc(Br)ccc32)c2ccccc2)cc1)N1CCC(N(C)C)CC1` (racemic) are 1490 nM, 1740 nM, 1590 nM and 1110 nM.
The like results for `CCN1CCN(CC(=O)N(C)c2ccc(N/C(=C3\C(=O)Nc4cc(C(=O)OC)ccc43)c3ccccc3)cc2)CC1` were, in that order, 5980 nM, 2310 nM, 3440 nM and 2720 nM.
With `COC(=O)c1ccc2c(c1)NC(=O)/C2=C(\Nc1ccc(N(C)C(=O)CN2CCCN(C)CC2)cc1)c1ccccc1`, the results for the IC50 in the series on MDA-MB-231 and in the series on BXPC-3 were 7830 nM and 3730 nM, respectively. The values for the IC50 at 72 h in series [1] and in series [2] were 3820 nM and 2910 nM, respectively.
On to `CN(C(=O)CN1CCOCC1)c1ccc(N/C(=C2\C(=O)Nc3cc(Br)ccc32)c2ccccc2)cc1`, for which the IC50 with MDA-MB-231 and in the series with BXPC-3 was greater than 10000 nM in each case. The IC50 at 72 h in series [1] and in series [2] was greater than 10000 nM in each case.
For the compound `CN1CCCN(CC(=O)N(C)c2ccc(N/C(=C3\C(=O)Nc4cc(Br)ccc43)c3ccccc3)cc2)CC1`, the IC50 turned out to be 3290 nM with MDA-MB-231 and 2150 nM in the series with BXPC-3. For the same compound, the IC50 at 72 h in series [1] was determined as 5980 nM; in series [2] it was 3190 nM.
The corresponding values for `CCN1CCN(C(C)C(=O)N(C)c2ccc(N/C(=C3\C(=O)Nc4cc(Br)ccc43)c3ccccc3)cc2)CC1` (racemic) are 2470 nM, 2440 nM, 1870 nM and 670 nM.
As to `COC(=O)c1ccc2c(c1)NC(=O)/C2=C(\Nc1ccc(N(C)C(=O)C(C)N(C)CCN(C)C)cc1)c1ccccc1` (racemic), the IC50 was found to be 5980 nM in the series with MDA-MB-231 and 5780 nM with BXPC-3. In addition, the results for the IC50 at 72 h in series [1] and in series [2] were 2570 nM and 2000 nM, respectively.
Turning to `CCN1CCN(C(C)C(=O)N(C)c2ccc(N/C(=C3\C(=O)Nc4cc(C(=O)OC)ccc43)c3ccccc3)cc2)CC1` (racemic), the IC50 in the series on MDA-MB-231 was 5070 nM; in the series with BXPC-3, 1640 nM. Moreover, the IC50 at 72 h stood at 2100 nM in series [1] and 1500 nM in series [2].
The corresponding values for `CN1CCCN(CC(=O)N(C)c2ccc(N/C(=C3\C(=O)Nc4cc(Cl)ccc43)c3ccccc3)cc2)CC1` are 3870 nM, 3140 nM, 4520 nM and 4980 nM.
For `CC(C(=O)N(C)c1ccc(N/C(=C2\C(=O)Nc3cc(Cl)ccc32)c2ccccc2)cc1)N1CCCN(C)CC1` (racemic), the results for the 50% inhibitory concentration (IC50) with MDA-MB-231 and in the series with BXPC-3 were 2040 nM and 1740 nM, respectively. The values for the IC50 at 72 h in series [1] and in series [2] were 2200 nM and 690 nM, respectively.
The like results for `CC(C(=O)N(C)c1ccc(N/C(=C2\C(=O)Nc3cc(Br)ccc32)c2ccccc2)cc1)N1CCSCC1` (racemic) were, in that order, greater than 10000 nM, greater than 10000 nM, greater than 10000 nM and greater than 10000 nM.

These data come from ChEMBL document CHEMBL6087458, “The Discovery of a Novel AXL/Triple Angiokinase Inhibitor Based on 6-Chloro-Substituted Indolinone and Side Chain Methyl Substitution Inhibiting Pancreatic Cancer Growth and Metastasis” (J Med Chem, 2025).
